The source made the active and inactive calls. Bounds are passed on as bounds.

These results are taken from ChEMBL document CHEMBL1201862, “PubChem BioAssay data set” (2004).

One assay has as its target Melanocortin receptor 4 (Homo sapiens, UniProt P32245). The assay can be described thus: inhibitors of MC4R cAMP signaling – cell-based, TR-FRET, biased antagonists, dose response (AID 602298).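 Note: antagonist potency against agonist-stimulated cAMP production.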 It counts as functional.
Assay [1] in a line: cAMP pathway inhibition in counterscreen cell line – TR-FRET cAMP detection, counter-screen for MC4R biased antagonist project, dose response (AID 602305).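 Note: U2OS cells stimulated with forskolin near its EC80 as the cAMP inducer; potency is for inhibition of forskolin-stimulated cAMP signaling.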 It counts as functional, cell-based.
In assay [2] the target is T1, High affinity choline transporter 1 (Homo sapiens, UniProt Q9GZV3).
T1 sequence (Q9GZV3 whole entry): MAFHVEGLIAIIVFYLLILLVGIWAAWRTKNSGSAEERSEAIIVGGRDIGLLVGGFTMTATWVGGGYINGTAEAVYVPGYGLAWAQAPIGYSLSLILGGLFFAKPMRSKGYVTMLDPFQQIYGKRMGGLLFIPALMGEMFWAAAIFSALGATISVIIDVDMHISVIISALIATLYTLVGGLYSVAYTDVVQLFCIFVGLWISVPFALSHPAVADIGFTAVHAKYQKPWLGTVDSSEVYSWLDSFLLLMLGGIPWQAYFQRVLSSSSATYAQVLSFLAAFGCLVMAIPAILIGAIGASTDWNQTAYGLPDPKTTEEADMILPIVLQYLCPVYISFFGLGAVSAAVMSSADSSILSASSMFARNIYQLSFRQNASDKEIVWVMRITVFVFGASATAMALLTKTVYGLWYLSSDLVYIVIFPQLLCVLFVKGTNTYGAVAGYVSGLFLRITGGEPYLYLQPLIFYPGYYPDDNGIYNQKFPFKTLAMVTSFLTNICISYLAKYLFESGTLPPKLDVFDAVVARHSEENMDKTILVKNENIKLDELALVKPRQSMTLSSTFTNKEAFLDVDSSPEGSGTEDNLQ
Briefly: human choline transporter potentiators, potency – cell-based, 10-point CRC, membrane potential dye, dose response (AID 602376). It counts as functional.

In the next assay the target is Keap1/Nrf2 (Homo sapiens, UniProt Q14145). The assay can be described thus: disruptors of Keap1 binding to Nrf2 peptide – biochemical, fluorescence polarization, cherry-picked samples, dose response (AID 588683).
Keap1/Nrf2, sequence (Q16236 whole entry): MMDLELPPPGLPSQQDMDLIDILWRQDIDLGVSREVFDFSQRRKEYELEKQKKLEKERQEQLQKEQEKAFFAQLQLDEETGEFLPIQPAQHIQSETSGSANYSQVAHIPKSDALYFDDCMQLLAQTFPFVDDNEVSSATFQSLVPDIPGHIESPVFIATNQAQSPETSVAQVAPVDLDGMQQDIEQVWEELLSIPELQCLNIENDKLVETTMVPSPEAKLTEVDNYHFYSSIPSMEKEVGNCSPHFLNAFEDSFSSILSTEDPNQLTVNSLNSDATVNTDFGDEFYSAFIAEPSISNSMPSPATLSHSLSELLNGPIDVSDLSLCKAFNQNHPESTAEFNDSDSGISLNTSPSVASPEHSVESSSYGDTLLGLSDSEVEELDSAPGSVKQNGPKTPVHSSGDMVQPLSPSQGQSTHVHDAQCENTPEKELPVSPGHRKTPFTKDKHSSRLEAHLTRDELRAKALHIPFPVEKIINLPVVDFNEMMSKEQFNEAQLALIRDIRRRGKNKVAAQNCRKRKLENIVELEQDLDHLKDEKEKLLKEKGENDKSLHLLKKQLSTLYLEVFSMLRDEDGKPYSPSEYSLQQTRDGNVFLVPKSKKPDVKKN
Keap1/Nrf2, sequence (Q14145 whole entry): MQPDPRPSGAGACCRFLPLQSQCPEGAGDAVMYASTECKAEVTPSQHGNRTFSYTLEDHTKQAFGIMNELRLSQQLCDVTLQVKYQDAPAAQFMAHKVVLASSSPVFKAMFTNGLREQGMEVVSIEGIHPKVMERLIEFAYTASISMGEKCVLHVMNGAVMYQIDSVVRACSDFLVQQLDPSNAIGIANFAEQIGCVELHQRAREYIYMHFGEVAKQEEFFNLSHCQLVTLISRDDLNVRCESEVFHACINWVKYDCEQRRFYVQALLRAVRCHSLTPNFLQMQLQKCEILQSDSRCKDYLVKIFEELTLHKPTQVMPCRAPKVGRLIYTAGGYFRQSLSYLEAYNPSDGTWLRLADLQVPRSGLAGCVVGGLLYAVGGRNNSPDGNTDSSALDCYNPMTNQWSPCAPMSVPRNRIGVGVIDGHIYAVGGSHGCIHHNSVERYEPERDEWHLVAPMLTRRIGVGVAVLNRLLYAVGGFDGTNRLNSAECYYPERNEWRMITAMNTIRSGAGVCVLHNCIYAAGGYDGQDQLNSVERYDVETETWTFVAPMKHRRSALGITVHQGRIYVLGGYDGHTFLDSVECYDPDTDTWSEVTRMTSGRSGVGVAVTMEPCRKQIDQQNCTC
The target in a further assay is Ephrin type-A receptor 4 (Mus musculus, UniProt Q03137). Briefly: EphA4 ligand-binding antagonists – biochemical, colorimetric, mouse EphA4, primary screen (AID 689). Format: functional.
Ephrin type-A receptor 4, sequence (Q03137 whole entry): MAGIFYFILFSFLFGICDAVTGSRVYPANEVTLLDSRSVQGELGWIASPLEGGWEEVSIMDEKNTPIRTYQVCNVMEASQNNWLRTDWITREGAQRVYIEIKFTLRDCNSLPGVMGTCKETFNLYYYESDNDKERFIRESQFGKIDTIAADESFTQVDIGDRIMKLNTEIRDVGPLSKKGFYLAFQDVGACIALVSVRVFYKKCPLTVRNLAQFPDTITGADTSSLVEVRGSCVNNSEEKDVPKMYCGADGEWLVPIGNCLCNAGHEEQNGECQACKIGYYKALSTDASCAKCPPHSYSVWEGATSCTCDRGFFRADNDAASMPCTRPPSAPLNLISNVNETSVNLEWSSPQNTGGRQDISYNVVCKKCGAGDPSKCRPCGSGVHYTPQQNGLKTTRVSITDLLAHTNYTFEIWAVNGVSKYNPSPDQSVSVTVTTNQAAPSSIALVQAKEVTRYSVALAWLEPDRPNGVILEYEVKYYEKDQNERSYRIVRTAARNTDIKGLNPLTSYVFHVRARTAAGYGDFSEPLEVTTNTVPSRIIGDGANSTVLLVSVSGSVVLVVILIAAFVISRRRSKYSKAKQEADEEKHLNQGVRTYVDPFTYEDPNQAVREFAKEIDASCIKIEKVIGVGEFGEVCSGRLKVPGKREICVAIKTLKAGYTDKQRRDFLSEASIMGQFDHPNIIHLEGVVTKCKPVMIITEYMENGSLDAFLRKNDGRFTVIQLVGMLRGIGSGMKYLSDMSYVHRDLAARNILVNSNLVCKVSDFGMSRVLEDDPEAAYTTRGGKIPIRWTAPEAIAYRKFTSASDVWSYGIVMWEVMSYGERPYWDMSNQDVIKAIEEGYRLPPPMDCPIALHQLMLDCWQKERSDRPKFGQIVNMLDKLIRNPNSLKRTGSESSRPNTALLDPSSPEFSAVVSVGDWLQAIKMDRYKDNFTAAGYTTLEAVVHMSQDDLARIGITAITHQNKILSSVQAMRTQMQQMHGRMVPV
The test system of a further assay is HeLa. The assay can be described thus: viability loss in HeLa cells – cell-based, 24 h, cherry-picked samples, cytotoxicity control, dose response (AID 504726). As to conditions: Homo sapiens. It counts as functional.
The target in the next assay is ORF 73 (Human herpesvirus 8, UniProt O40947). Briefly: KSHV LANA DNA-binding disruption – biochemical, fluorescence polarization, cherry-picked samples, dose response (AID 504725).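 Note: fluorescence polarization of a labeled DNA duplex reporting LANA DNA binding; potency is for inhibitors that block LANA binding to the DNA.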 More on the design: species or system Human gammaherpesvirus 8.
The next assay addresses Troponin, cardiac muscle (Homo sapiens, UniProt P19429+P45379+P63316). The assay can be described thus: Fluorescence-based biochemical high throughput dose response assay for activators of the calcium sensitivity of cardiac Regulated Thin Filaments (RTF). [Related pubchem assays (depositor defined):AID493008, AID493018, AID504382, AID504383]. It counts as protein-complex assay.

The target of assay [3] is T2, Endoribonuclease toxin MazF (Escherichia coli K-12, UniProt P0AE70).
T2 sequence (P0AE70 whole entry): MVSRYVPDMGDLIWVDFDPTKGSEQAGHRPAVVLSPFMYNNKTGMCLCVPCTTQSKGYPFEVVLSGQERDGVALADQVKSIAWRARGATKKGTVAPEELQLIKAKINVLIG
The assay can be described thus: activation of MazEF endoribonuclease cleavage – biochemical, fluorescence, single-stranded RNA substrate, uHTS hits, dose response (AID 588481). Format: functional.

The target in another assay is Beta Lactamase (Pseudomonas aeruginosa, UniProt Q932Y6). Briefly: BLA reporter interference, concentration series – BLA reporter cells, FRET fluorescence, artefact control for TLR9-MyD88 binding inhibitor project, dose response (AID 588341).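 Note: cell based assay in CHO-K1 cells stably expressing beta-lactamase.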 It counts as cell-based.
Beta Lactamase, sequence (Q932Y6 whole entry): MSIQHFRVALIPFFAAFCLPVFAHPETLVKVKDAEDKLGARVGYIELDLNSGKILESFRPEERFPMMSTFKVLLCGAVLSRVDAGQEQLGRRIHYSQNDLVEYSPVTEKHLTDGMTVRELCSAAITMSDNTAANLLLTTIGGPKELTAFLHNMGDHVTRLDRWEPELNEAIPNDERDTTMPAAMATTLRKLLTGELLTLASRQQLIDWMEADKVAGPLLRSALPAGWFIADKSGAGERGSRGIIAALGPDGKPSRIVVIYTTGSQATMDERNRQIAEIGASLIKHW
Assay [4] has as its target T3, Corticotropin-releasing factor receptor 2/Corticotropin-releasing factor-binding protein (Homo sapiens, UniProt P24387+Q13324).
T3 sequence (Q13324 whole entry): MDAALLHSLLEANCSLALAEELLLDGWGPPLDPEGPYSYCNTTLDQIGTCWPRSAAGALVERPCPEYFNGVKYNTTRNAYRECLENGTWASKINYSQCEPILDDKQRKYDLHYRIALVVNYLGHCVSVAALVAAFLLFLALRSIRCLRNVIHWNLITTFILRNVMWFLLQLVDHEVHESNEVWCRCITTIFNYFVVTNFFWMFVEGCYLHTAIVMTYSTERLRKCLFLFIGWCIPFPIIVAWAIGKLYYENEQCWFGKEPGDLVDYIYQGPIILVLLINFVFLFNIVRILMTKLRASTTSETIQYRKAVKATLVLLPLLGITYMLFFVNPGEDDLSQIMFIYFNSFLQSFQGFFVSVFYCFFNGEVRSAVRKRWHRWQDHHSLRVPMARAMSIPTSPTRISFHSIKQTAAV
T3 sequence (P24387 whole entry): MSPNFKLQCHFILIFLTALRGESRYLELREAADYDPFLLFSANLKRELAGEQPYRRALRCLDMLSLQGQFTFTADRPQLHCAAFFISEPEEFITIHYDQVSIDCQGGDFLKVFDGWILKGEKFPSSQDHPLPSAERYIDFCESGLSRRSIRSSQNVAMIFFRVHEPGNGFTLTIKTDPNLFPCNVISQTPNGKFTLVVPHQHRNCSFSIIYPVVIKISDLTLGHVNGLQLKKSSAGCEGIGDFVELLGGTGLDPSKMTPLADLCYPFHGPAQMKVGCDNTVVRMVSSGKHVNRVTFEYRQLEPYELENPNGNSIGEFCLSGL
Briefly: activators of CRF receptor 2 with binding protein – uHTS hits, confirmation (AID 602473). It counts as functional. The following applies: read-out: EC50_Mean.

Assay [5] concerns the target T2, Endoribonuclease toxin MazF. The assay can be described thus: substrate-only fluorescence increase artefacts – biochemical, single-stranded RNase substrate, counter-screen for MazEF activator project, dose response (AID 588502). It counts as functional.
The subject of the next assay is CHO. The assay can be described thus: CHO cell viability loss, potency – luminescence, cytotoxicity control for TLR9-MyD88 binding inhibitor project, dose response (AID 588339).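 Note: CHO cells stably coexpressing TLR9 and MyD88 fusions from primary screen; compound exposure lasted 48 hours before viability readout.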 Format: functional, cell-based, hamster. The following applies: Cricetulus griseus.
Assay [6] in a line: FACS-based assay to assess parasite growth inhibition 48 hr Measured in Cell-Based System Using Flow Cytometry - 2126-03_Inhibitor_Dose_DryPowder_Activity. [Related pubchem assays (depositor defined):AID488774]. As to conditions: Homo sapiens. Format: functional.
Assay [7] can be described thus: A cell-based HTS for delayed death inhibitors of the malarial parasite plastid Measured in Microorganism System Using Plate Reader - 2126-01_Inhibitor_Dose_DryPowder_Activity. Format: functional, organism-based.
Another assay relates to Erythrocyte. Briefly: FACS-based assay to assess parasite growth inhibition 96 hr Measured in Cell-Based System Using Flow Cytometry - 2126-05_Inhibitor_Dose_DryPowder_Activity. [Related pubchem assays (depositor defined):AID488774]. It counts as functional. The following applies: Homo sapiens.
Assay [8] is described as follows: A cell-based HTS for delayed death inhibitors of the malarial parasite plastid Measured in Microorganism System Using Plate Reader - 2126-02_Inhibitor_Dose_DryPowder_Activity. It counts as functional, organism-based.
The target in assay [9] is Leukocyte tyrosine kinase receptor (Homo sapiens, UniProt P29376). The assay can be described thus: Navigating the Kinome. Panel member name: LTK. It counts as functional.
Leukocyte tyrosine kinase receptor, sequence (P29376 whole entry): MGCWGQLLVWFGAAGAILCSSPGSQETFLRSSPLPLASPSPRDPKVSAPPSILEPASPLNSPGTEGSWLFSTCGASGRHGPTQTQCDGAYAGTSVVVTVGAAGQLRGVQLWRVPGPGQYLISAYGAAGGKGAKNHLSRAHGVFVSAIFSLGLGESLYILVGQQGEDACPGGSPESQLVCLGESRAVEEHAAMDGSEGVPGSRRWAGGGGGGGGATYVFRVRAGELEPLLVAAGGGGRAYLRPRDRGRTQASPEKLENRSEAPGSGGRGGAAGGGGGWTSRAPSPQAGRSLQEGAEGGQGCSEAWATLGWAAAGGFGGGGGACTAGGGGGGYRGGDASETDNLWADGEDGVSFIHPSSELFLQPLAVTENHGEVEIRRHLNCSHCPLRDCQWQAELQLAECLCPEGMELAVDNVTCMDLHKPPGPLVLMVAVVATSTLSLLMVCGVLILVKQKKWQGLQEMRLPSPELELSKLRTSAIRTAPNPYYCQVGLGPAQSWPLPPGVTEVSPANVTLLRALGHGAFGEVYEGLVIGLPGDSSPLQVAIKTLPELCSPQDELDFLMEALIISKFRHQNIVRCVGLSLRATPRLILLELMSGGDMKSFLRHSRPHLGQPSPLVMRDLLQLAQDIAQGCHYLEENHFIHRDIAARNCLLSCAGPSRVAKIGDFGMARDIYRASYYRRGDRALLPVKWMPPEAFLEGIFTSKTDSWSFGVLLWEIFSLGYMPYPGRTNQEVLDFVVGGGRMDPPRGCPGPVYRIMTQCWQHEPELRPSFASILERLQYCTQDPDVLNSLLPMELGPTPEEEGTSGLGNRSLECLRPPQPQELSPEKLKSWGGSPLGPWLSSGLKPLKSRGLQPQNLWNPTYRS
In assay [10] the target is Dual specificity protein kinase CLK4 (Homo sapiens, UniProt Q9HAZ1). Format: functional.
Assay [11] addresses cAMP-dependent protein kinase catalytic subunit PRKX (Homo sapiens, UniProt P51817). Format: functional.
The target of assay [12] is Cyclin-dependent kinase 9 (Homo sapiens, UniProt P50750). It counts as functional.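 Note: value from the CDK9 entry of a kinome-spanning kinase panel.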
Assay [13] concerns the target Leucine-rich repeat serine/threonine-protein kinase 2 (Homo sapiens, UniProt Q5S007). It counts as functional.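 Note: value from a broad kinome-wide panel profiling study in which LRRK2 was one of the kinases tested.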
Assay [14] has as its target Hepatocyte growth factor receptor (Homo sapiens, UniProt P08581). It counts as functional.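 Note: kinase panel profiling across the kinome, with MET as the panel member.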
Assay [15] has as its target Serine/threonine-protein kinase Chk1 (Homo sapiens, UniProt O14757). It counts as functional.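 Note: measured as one member of a kinome-wide kinase profiling panel.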
Assay [16] deals with Multidrug resistance protein CDR2 (Candida albicans (strain SC5314 / ATCC MYA-2876) (Yeast), UniProt P78595). Briefly: inhibition of Nile Red efflux via Candida CDR2 – S. cerevisiae AD1-8u, singleplex, Cherry Pick1 hits, dose response (AID 588604). It counts as functional.
Multidrug resistance protein CDR2, sequence (P78595 whole entry): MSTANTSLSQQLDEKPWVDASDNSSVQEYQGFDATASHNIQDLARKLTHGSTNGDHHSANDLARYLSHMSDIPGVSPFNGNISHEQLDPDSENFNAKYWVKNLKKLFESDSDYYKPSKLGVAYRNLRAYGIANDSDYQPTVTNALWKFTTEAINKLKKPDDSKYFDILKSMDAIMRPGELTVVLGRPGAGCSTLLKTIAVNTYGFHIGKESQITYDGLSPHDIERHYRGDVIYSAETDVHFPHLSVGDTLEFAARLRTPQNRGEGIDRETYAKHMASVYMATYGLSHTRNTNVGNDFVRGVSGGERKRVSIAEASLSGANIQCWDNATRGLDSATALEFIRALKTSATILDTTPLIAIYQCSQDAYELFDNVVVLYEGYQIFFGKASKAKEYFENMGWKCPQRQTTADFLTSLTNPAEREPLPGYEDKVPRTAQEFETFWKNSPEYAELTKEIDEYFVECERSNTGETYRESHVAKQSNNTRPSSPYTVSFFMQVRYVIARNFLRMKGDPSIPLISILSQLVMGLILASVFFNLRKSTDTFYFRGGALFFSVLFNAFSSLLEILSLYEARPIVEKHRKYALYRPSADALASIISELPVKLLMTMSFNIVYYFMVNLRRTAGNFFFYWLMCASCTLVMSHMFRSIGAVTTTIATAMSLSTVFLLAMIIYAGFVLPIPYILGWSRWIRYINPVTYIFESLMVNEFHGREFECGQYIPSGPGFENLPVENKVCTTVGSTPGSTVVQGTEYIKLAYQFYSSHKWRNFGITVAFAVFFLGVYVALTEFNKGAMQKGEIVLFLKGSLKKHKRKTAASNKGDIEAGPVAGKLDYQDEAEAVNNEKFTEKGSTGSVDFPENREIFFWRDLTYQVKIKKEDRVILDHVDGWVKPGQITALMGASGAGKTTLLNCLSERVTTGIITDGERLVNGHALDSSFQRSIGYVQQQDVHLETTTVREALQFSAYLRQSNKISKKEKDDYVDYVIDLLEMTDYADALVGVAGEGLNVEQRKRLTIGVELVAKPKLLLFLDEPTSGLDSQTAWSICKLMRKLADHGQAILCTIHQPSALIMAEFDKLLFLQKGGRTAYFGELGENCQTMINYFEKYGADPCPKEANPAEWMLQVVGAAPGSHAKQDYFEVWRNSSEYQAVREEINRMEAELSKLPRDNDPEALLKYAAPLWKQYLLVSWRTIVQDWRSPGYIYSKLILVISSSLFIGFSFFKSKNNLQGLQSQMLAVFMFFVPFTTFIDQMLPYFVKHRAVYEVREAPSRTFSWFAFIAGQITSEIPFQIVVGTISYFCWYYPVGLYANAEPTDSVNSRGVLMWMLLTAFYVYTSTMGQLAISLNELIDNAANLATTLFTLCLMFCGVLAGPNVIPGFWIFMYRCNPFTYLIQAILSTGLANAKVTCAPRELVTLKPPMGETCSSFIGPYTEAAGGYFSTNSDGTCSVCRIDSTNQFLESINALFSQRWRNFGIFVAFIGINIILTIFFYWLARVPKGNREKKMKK
The target of a further assay is T4, Mucolipin-3 (Homo sapiens, UniProt Q8TDD5).
T4 sequence (Q8TDD5 whole entry): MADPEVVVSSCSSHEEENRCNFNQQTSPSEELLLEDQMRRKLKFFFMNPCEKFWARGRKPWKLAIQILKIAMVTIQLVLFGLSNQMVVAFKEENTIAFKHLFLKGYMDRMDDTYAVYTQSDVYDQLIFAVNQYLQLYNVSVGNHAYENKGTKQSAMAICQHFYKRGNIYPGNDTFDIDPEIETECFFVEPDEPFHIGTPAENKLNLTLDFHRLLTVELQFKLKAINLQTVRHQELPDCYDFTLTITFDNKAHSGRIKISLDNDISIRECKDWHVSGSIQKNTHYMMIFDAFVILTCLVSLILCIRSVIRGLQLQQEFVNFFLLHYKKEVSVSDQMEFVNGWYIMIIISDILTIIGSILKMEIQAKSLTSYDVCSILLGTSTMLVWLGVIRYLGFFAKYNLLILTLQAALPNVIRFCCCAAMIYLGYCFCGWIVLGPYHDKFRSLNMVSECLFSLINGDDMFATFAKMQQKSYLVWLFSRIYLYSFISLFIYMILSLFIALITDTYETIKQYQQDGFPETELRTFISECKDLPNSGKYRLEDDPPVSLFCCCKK
Briefly: Fluorescence counterscreen assay for […] agonists: dose response cell-based high-throughput screening assay to identify agonists of the transient receptor potential channel ML3 (TRPML3). [Related pubchem assays: 1424, 1448 ]. Format: functional.

The next assay concerns the target Ion channel NompC (Danio rerio, UniProt Q7T1G6). Briefly: Dose response cell-based high-throughput screening assay for agonists of the transient receptor potential channel N1 (TRPN1). [Related pubchem assays (depositor defined):AID1424, AID1448]. Format: functional.

Regarding `CN(C(=O)COC(=O)CNC(=O)c1ccc(Cl)cc1Cl)c1ccccc1`, the IC50 (on Melanocortin receptor 4; in assay [1]) was > 64.6 µM (inactive) throughout.
For the molecule `CC(C)COP(=O)(OCC(C)C)C(Nc1ccccc1)c1ccc(F)cc1` (stereo not drawn), the EC50 in [2] was 12.2 µM (active).
Take `CCn1nc(-c2ccccc2)c2nc3ccccc3nc21`: the results for the AC50 on Keap1/Nrf2, in the assay on HeLa and on ORF 73 were 39.5 µM (active), 96.5 µM (active) and 30.9 µM (active), respectively. The IC50 at Ephrin type-A receptor 4 is 5.45 µM (active); at Beta Lactamase, 5.36 µM (active); in the assay on CHO it was > 49.7 µM (inactive). For the same molecule, the EC50 is 5.55 µM (active) at Troponin, cardiac muscle; > 99 µM (inactive) in assay [3]; 6.66 µM (active) in assay [4]; 84 µM (inactive) in [5].
Consider `Cc1noc(C)c1NC(=O)Nc1ccc2c(c1)C(=O)N([C@@H](C)CO)C[C@@H](C)[C@H](CN(C)S(=O)(=O)c1ccc(F)cc1)OCCCC[C@H](C)O2`, for which the concentration at half-maximal activity (AC50) in assay [6] was 0.609 µM (active); in assay [7] it was 0.697 µM (active); in the assay with Erythrocyte, 0.697 µM (active); in [8] it was 0.57 µM (active).
Turning to `Cc1csc2nc(N)nn12`, the Ki in [9] is 79.4 µM (active); in [10], 31.6 µM (active); in assay [11], 79.4 µM (active); in [12], 50.1 µM (active); in [13], 39.8 µM (active); in [14], 79.4 µM (active). In addition, the inhibition constant (Ki) in [15] is 31.6 µM (active).
As to `C=CCn1c(=O)[nH]c2nc3cc(/N=C/N(C)C)c(C)cc3nc2c1=O`, the EC50 in [16] is 1.62 µM (active); on Troponin, cardiac muscle, 1.86 µM (active); at Mucolipin-3, 5.89 µM (active); at Ion channel NompC it was 3.27 µM (active).
